Patent US11999728B2, “Estrogen receptor modulators” (Recurium IP Holdings, LLC, priority 2020, dated 2024)
pIC50: −log10 of the molar value.

Test system: MCF7
Experiment: Breast Cancer Cell Proliferation Assay (MCF-7), Cell Titer-Glo
Format: cell-based
Conditions: Homo sapiens, MCF7, 120 h, MCF7 cells, 5 days of compound exposure
Procedure: Breast Cancer Cell Proliferation Assay (MCF-7)
MCF7 was expanded and maintained in the medium (Phenol red free DMEM/F12 (Hyclone SH30272.01) NEAA (Gibco11140-050) Na-pyruvate (Gibco 11360-070) and Re-stripped Charcoal stripped FBS (Gemini 100-119)). The cells were adjusted to a concentration of 3,000 cells per mL in the above media, and the cells were incubated (37° C., 5% CO2). The following day a 10-point, serial dilution of compounds was added to the cells at a final concentration ranging from 10-0.000005 μM for test compounds (17β-estradiol was used as a control). Additional cells were plated in 30 wells to serve as the day 1 (pretreatment) comparison. After 5 days of compound exposure, Cell Titer-Glo reagent was added to the cells and the relative luminescence units (RLUs) of each well was determined. Cell Titer-Glo was also added to 32 μL of medium without cells to obtain a background value. The plates were allowed to incubate at room temperature for 10 minutes to stabilize luminescent signal and the luminescence signal was recorded with EnSpire. The relative increase in cell number of each sample is determined as follows: (RLU sample-RLU background/RLU estrogen only treated cells-RLU background)×100=% inhibition.

Structure (SMILES)	pIC50
C[C@H]1Cc2c([nH]c3ccccc23)[C@H](c2c(F)cc(O[C@H]3CCN(CCCF)C3)cc2F)N1C12CC(C(N)=O)(C1)C2 (single isomer, unassigned) [Compound 32]	≤ 6.60
C[C@@H]1Cc2c([nH]c3ccccc23)[C@@H](c2ncc(OC3CN(CCCF)C3)cn2)N1C12CC(C1)C2 [Compound 61, (1S,3R)-2-(bicyclo[1.1.1]pentan-1-yl)-1-(5-((1-(3-fluoropropyl)azetidin-3-yl)oxy)pyrimidin-2-yl)-3-methyl-2,3,4,9-tetrahydro-1H-pyrido[3,4-b]indole]	≤ 6.60
C[C@@H]1Cc2c([nH]c3ccccc23)[C@@H](c2ccc(NC3CN(CCCF)C3)cc2)N1C12CC(CF)(C1)C2 (single isomer, unassigned) [Compound 62]	≤ 6.60
C[C@@H]1Cc2c([nH]c3ccccc23)[C@@H](c2c(F)cc(O[C@H]3CCN(CCCF)C3)cc2F)N1C12CC(C#N)(C1)C2 (single isomer, unassigned) [Compound 36]	≤ 6.60
C[C@@H]1Cc2c([nH]c3ccccc23)[C@@H](c2ccc(NCCN3CCC(CF)C3)nc2)N1C12CC(C1)C2 (stereo partly drawn) [Compound 29, 5-((1R,3R)-2-(bicyclo[1.1.1]pentan-1-yl)-3-methyl-2,3,4,9-tetrahydro-1H-pyrido[3,4-b]indol-1-yl)-N-(2-(3-(fluoromethyl)pyrrolidin-1-yl)ethyl)pyridin-2-amine]	≤ 6.60
CCCN1CC(Nc2ccc([C@@H]3c4[nH]c5ccccc5c4C[C@@H](C)N3C34CC(C3)C4)cn2)C1 [Compound 30, 5-((1R,3R)-2-(bicyclo[1.1.1]pentan-1-yl)-3-methyl-2,3,4,9-tetrahydro-1H-pyrido[3,4-b]indol-1-yl)-N-(1-propylazetidin-3-yl)pyridin-2-amine]	≤ 6.60
CCCN1C[C@@H](Nc2ccc([C@@H]3c4[nH]c5ccccc5c4C[C@@H](C)N3C34CC(C3)C4)cc2)C[C@@H]1C [Compound 89, (3S,5S)—N-(4-((1R,3R)-2-(bicyclo[1.1.1]pentan-1-yl)-3-methyl-2,3,4,9-tetrahydro-1H-pyrido[3,4-b]indol-1-yl)phenyl)-5-methyl-1-propylpyrrolidin-3-amine]	6.60 to 7.60
C[C@@H]1Cc2c([nH]c3ccccc23)[C@@H](c2ccc(OC3CN(CCO)C3)cc2)N1C12CC(C1)C2 [Compound 46, 2-(3-(4-((1R,3R)-2-(bicyclo[1.1.1]pentan-1-yl)-3-methyl-2,3,4,9-tetrahydro-1H-pyrido[3,4-b]indol-1-yl)phenoxy)azetidin-1-yl)ethan-1-ol]	≤ 6.60
C[C@H]1Cc2c([nH]c3ccccc23)[C@H](c2c(F)cc(O[C@H]3CCN(CCCF)C3)cc2F)N1C12CC(C#N)(C1)C2 (single isomer, unassigned) [Compound 90]	≤ 6.60
C[C@H]1Cc2c([nH]c3ccccc23)[C@H](c2ccc(OC3CN(CCCF)C3)cc2)N1C12CC(CO)(C1)C2 (single isomer, unassigned) [Compound 51]	6.60 to 7.60
C[C@@H]1Cc2c([nH]c3ccccc23)[C@@H](c2cnc(NC3CN(CCCF)C3)nc2)N1C12CC(C1)C2 [Compound 57, 5-((1R,3R)-2-(bicyclo[1.1.1]pentan-1-yl)-3-methyl-2,3,4,9-tetrahydro-1H-pyrido[3,4-b]indol-1-yl)-N-(1-(3-fluoropropyl)azetidin-3-yl)pyrimidin-2-amine]	6.60 to 7.60
C[C@@H]1Cc2c([nH]c3ccccc23)[C@@H](c2cnc(N[C@H]3CCN(CCCF)C3)cn2)N1C12CC(C1)C2 [Compound 44, 5-((1S,3R)-2-(bicyclo[1.1.1]pentan-1-yl)-3-methyl-2,3,4,9-tetrahydro-1H-pyrido[3,4-b]indol-1-yl)-N—((S)-1-(3-fluoropropyl)pyrrolidin-3-yl)pyrazin-2-amine]	≤ 6.60
C[C@@H]1Cc2c([nH]c3ccccc23)[C@@H](c2ccc(N[C@H]3CCN(CCCF)C3)cn2)N1C12CC(C1)C2 [Compound 55, 6-((1S,3R)-2-(bicyclo[1.1.1]pentan-1-yl)-3-methyl-2,3,4,9-tetrahydro-1H-pyrido[3,4-b]indol-1-yl)-N—((S)-1-(3-fluoropropyl)pyrrolidin-3-yl)pyridin-3-amine]	≤ 6.60

Continued, values first:

pIC50	Structure (SMILES)
≥ 7.60	C[C@@H]1Cc2c([nH]c3ccccc23)[C@@H](c2ccc(N[C@@H]3CN(CCCF)C[C@@H]3O)cc2)N1C12CC(C1)C2 [Compound 78, (3S,4R)-4-((4-((1R,3R)-2-(bicyclo[1.1.1]pentan-1-yl)-3-methyl-2,3,4,9-tetrahydro-1H-pyrido[3,4-b]indol-1-yl)phenyl)amino)-1-(3-fluoropropyl)pyrrolidin-3-ol]
6.60 to 7.60	CCCN1CC(Oc2ccc([C@H]3c4[nH]c5ccccc5c4C[C@H](C)N3C34CC(CO)(C3)C4)cc2)C1 (single isomer, unassigned) [Compound 53]
≥ 7.60	C[C@@H]1Cc2c([nH]c3ccccc23)[C@@H](c2c(F)cc(O[C@@H]3CCN(CCCF)C3)cc2F)N1C12CC(C#N)(C1)C2 (single isomer, unassigned) [Compound 37]
6.60 to 7.60	C[C@@H]1Cc2c([nH]c3ccccc23)[C@@H](c2c(F)cc(NC3CN(CCCF)C3)cc2F)N1C12CC(C(N)=O)(C1)C2 (single isomer, unassigned) [Compound 76]
≥ 7.60	C[C@@H]1Cc2c([nH]c3ccccc23)[C@@H](c2ccc(O[C@H]3CCN(CCCF)C3)cc2)N1C12CC(C1)C2 (single isomer, unassigned) [Compound 8]
≥ 7.60	CCCN1C[C@@H](F)[C@H](Nc2ccc([C@@H]3c4[nH]c5ccccc5c4C[C@@H](C)N3C34CC(C3)C4)cc2)C1 [Compound 87, (3R,4R)—N-(4-((1R,3R)-2-(bicyclo[1.1.1]pentan-1-yl)-3-methyl-2,3,4,9-tetrahydro-1H-pyrido[3,4-b]indol-1-yl)phenyl)-4-fluoro-1-propylpyrrolidin-3-amine]
≥ 7.60	CCCN1CC[C@H](Nc2cnc([C@@H]3c4[nH]c5ccccc5c4C[C@@H](C)N3C34CC(C3)C4)cn2)C1 [Compound 54, 5-((1S,3R)-2-(bicyclo[1.1.1]pentan-1-yl)-3-methyl-2,3,4,9-tetrahydro-1H-pyrido[3,4-b]indol-1-yl)-N—((S)-1-propylpyrrolidin-3-yl)pyrazin-2-amine]
≥ 7.60	C[C@@H]1Cc2c([nH]c3ccccc23)[C@@H](c2c(F)cc(O[C@H]3CCN(CCCF)C3)cc2F)N1C12CC(C(N)=O)(C1)C2 (single isomer, unassigned) [Compound 35]
6.60 to 7.60	CCCN1CC(Oc2ccc([C@@H]3c4[nH]c5ccccc5c4C[C@@H](C)N3C34CC(C3)C4)cn2)C1 [Compound 43, (1R,3R)-2-(bicyclo[1.1.1]pentan-1-yl)-3-methyl-1-(6-((1-propylazetidin-3-yl)oxy)pyridin-3-yl)-2,3,4,9-tetrahydro-1H-pyrido[3,4-b]indole]
≥ 7.60	C=CCN1CC(Nc2ccc([C@@H]3c4[nH]c5ccccc5c4C[C@@H](C)N3C34CC(C3)C4)cc2)C1 [Compound 64, 1-allyl-N-(4-((1R,3R)-2-(bicyclo[1.1.1]pentan-1-yl)-3-methyl-2,3,4,9-tetrahydro-1H-pyrido[3,4-b]indol-1-yl)phenyl)azetidin-3-amine]
6.60 to 7.60	C[C@@H]1Cc2c([nH]c3ccccc23)[C@@H](c2ccc(N[C@H]3CN(CCCF)C[C@@H]3O)cc2)N1C12CC(C1)C2 (single isomer, unassigned) [Compound 79]
≥ 7.60	C[C@@H]1Cc2c([nH]c3ccccc23)[C@@H](c2ccc(N[C@@H]3CN(CCCF)C[C@H]3O)cc2)N1C12CC(C1)C2 (single isomer, unassigned) [Compound 80]
≥ 7.60	CCCCN1C[C@@H](F)[C@H](Nc2ccc([C@@H]3c4[nH]c5ccccc5c4C[C@@H](C)N3C34CC(C3)C4)cc2)C1 [Compound 84, (3R,4R)—N-(4-((1R,3R)-2-(bicyclo[1.1.1]pentan-1-yl)-3-methyl-2,3,4,9-tetrahydro-1H-pyrido[3,4-b]indol-1-yl)phenyl)-1-butyl-4-fluoropyrrolidin-3-amine]
≥ 7.60	C[C@H]1Cc2c([nH]c3ccccc23)[C@H](c2ccc(NC3CN(CCCF)C3)cc2)N1C12CC(CF)(C1)C2 (single isomer, unassigned) [Compound 63]
≥ 7.60	C[C@@H]1Cc2c([nH]c3ccccc23)[C@@H](c2ccc(OC3CN(C4CC4)C3)cc2)N1C12CC(C1)C2 [Compound 47, (1R,3R)-2-(bicyclo[1.1.1]pentan-1-yl)-1-(4-((1-cyclopropylazetidin-3-yl)oxy)phenyl)-3-methyl-2,3,4,9-tetrahydro-1H-pyrido[3,4-b]indole]
≥ 7.60	C[C@@H]1Cc2c([nH]c3ccccc23)[C@@H](c2c(F)cc(NC3CN(CCF)C3)cc2F)N1C12CC(C1)C2 [Compound 56, N-(4-((1R,3R)-2-(bicyclo[1.1.1]pentan-1-yl)-3-methyl-2,3,4,9-tetrahydro-1H-pyrido[3,4-b]indol-1-yl)-3,5-difluorophenyl)-1-(2-fluoroethyl)azetidin-3-amine]
≥ 7.60	C[C@@H]1Cc2c([nH]c3ccccc23)[C@@H](c2ncc(NC3CN(CCCF)C3)cc2F)N1C12CC(C1)C2 [Compound 13, 6-((1S,3R)-2-(bicyclo[1.1.1]pentan-1-yl)-3-methyl-2,3,4,9-tetrahydro-1H-pyrido[3,4-b]indol-1-yl)-5-fluoro-N-(1-(3-fluoropropyl)azetidin-3-yl)pyridin-3-amine]
≥ 7.60	C[C@]12CC[C@@H]3c4ccc(O)cc4C[C@@H](CCCCCCCCC[S+]([O-])CCCC(F)(F)C(F)(F)F)[C@H]3[C@@H]1CC[C@@H]2O (stereo partly shown) [fulvestrant, reference compound]
